In patent US20030083501A1, “Process for preparing paroxetine HCl which limits formation of pink colored compounds” (priority 2001, published 2003):
Where a name gives a salt, the structure may show the parent alone.

Key:
Assay type in all cases: physicochemical
[1] = Visual analysis of the colour of a paroxetine HCl solution; conditions: 2 mg/ml paroxetine HCl in 0.05M di-Potassium hydrogen phosphate buffer and 35% acetonitrile, standing 20 minutes
Experimental: One visual analysis can be carried out by preparing a solution of about 2 mg/ml of paroxetine HCl prepared in a mixture of about 0.05M di-Potassium hydrogen phosphate buffer and about 35% of acetonitrile. […] Preferably, the solution of the paroxetine HCl of the present invention is color free for at least about 20 minutes. On the other hand, available commercial products usually produce a pink colored solution under similar conditions. To test the purity of the final product, a 2 mg/ml solution of paroxetine HCl was prepared in a mixture of 0.05M di-Potassium hydrogen phosphate buffer and 35% of acetonitrile.

[2] = HPLC content of the impurity at RRT about 1.5 after storage; conditions: storage for 4 days at 55° C., UV 285 nm, b52 gives such levels as HPLC area percentage, HCl
Description: Without being bound by theory, it is believed that impurities in paroxetine hydrochloride play a role in the color change to pink. The level of the impurities in paroxetine that are associated with a color change to pink can be analyzed in two different manners. One approach is a simple visual analysis, i.e., observing if a sample of paroxetine HCl has turned pink. Another approach is to measure the degree of an impurity identified by a high pressure liquid chromatography (“HPLC”) relative retention time (“RRT”) of about 1.5. The different UV-spectrum characteristic of this impurity has linked the impurity to the development of a pink color. […] Purification steps to remove this impurity such as by crystallization, extraction, chromatography or other separation procedures are often ineffective. The paroxetine hydrochloride of the present process is substantially free of impurities associated with a color change to pink, and is less susceptible, if at all, to develop a pink color overtime These impurities include the impurity identified by an HPLC RRT of about 1.5. Retention time refers to the time required for a compound to pass from the point of injection to the detector. […] Detected by U.V. spectroscopy at λ=285 nm.

[3] = Visual analysis of the colour of solid paroxetine HCl during storage; conditions: storage for at least one month at 55° C.
Experimental: Another visual analysis can be carried out by observing the color of paroxetine hydrochloride during storage. Preferably, the paroxetine HCl of the present invention is substantially free compounds associated with a pink color for at least four days at a temperature of about 55° C. and a relative humidity of about 60-80%. One of skill in the art can appreciate that the level of the compounds associated with a pink color can vary according to the temperature and other conditions used for storage.
Paroxetine HCl (approximately 4 grams) was dissolved in toluene(40 ml) at reflux. Ascorbic acid (40 mg) and active carbon SX1 (200 mg) were added to the solution and stirred for 5-10 minutes. The solution was then filtered. The filtrate was cooled to 2-4° C., stirred for approximately 1 hour and filtered again to separate a formed precipitate. The solid precipitate was washed with toluene (4 ml) and dried at a temperature of 60° C. under vacuum to give white (color-free) product (3.4 grams). The product was color-free during storage for at least one month at a temperature of 55° C., and yielded solutions (carried out in the same manner as example 1) that were also color-free.

| SMILES | development of a pink color in solution [1] | content of the impurity at RRT about 1.5 after storage [2] | color of the product during storage [3] |
| --- | --- | --- | --- |
| Fc1ccc([C@@H]2CCNC[C@H]2COc2ccc3c(c2)OCO3)cc1 [Example 1, paroxetine HCl] | did not develop a pink color |  |  |
| Fc1ccc([C@@H]2CCNC[C@H]2COc2ccc3c(c2)OCO3)cc1 [Example 2, paroxetine HCl] |  | 0.02 |  |
| Fc1ccc([C@@H]2CCNC[C@H]2COc2ccc3c(c2)OCO3)cc1 [Example 3, paroxetine HCl] |  | 0.23 |  |
| Fc1ccc([C@@H]2CCNC[C@H]2COc2ccc3c(c2)OCO3)cc1 [Example 5, Paroxetine HCl] | color-free |  | color-free |
